# Square brackets hold non-standard residues; d marks the D form. Peptide text beside a SMILES is read from it. Mpa = O=C(O)CCS
# Target: CDK9/cyclin T1 (Homo sapiens, UniProt O60563+P50750)
# Test: Inhibition of CDK9/cyclin T1 (unknown origin) assessed as inhibition constant
# Sequence of CDK9/cyclin T1 (O60563 whole entry, looked up): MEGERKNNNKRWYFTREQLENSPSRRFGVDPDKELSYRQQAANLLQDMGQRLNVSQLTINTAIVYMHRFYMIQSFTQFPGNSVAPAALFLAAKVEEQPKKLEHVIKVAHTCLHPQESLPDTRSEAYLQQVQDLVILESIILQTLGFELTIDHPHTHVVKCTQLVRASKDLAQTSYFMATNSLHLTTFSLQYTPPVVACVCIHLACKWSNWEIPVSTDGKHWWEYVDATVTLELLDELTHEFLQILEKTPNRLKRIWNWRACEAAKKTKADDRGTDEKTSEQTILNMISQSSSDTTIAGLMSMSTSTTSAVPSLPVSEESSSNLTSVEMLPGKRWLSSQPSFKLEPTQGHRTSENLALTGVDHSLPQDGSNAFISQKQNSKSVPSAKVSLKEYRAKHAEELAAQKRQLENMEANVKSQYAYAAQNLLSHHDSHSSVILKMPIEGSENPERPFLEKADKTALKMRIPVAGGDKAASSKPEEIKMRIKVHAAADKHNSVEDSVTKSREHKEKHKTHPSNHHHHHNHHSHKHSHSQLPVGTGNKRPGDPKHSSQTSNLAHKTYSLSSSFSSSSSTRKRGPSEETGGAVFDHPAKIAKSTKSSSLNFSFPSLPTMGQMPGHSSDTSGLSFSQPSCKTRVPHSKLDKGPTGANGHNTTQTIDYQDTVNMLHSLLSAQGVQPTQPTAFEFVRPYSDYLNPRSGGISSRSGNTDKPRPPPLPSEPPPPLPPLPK
# Sequence of CDK9/cyclin T1 (P50750 whole entry, looked up): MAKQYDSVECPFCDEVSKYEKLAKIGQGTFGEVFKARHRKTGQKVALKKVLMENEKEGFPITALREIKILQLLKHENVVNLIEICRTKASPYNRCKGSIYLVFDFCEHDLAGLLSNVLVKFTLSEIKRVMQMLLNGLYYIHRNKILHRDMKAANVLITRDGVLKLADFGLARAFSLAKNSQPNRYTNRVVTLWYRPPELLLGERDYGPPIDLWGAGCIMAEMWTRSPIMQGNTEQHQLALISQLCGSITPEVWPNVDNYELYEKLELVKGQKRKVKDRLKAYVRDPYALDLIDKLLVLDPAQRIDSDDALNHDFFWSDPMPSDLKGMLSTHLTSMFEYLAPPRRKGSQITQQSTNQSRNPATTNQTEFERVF
row,SMILES,Ki
1,CC(C)C[C@H](NC(=O)[C@@H](NC(=O)c1ccc(OCc2ccccc2)cc1)C(C)C)C(=O)N[C@@H](CO)C(=O)O,3.3 nM
2,CC(C)C[C@H](NC(=O)[C@@H](NC(=O)c1cccc(OCc2ccccc2)c1)C(C)C)C(=O)N[C@@H](CO)C(=O)O,3.3 nM
3,CC(C)C[C@H](NC(=O)[C@@H](NC(=O)CCS)C(C)C)C(=O)N[C@@H](CO)C(=O)O ([Mpa]VLS-OH),3.3 nM

# Target: Cyclin-dependent kinase 2/cyclin E1 (Homo sapiens, UniProt P24864+P24941)
# Test: Inhibition of CDK2/cyclin E1 (unknown origin) incubated for 60 mins in presence of ATP by ADP-Glo luminescent Kinase Assay
row,SMILES,IC50
1,CC(C)C[C@H](NC(=O)[C@@H](NC(=O)c1ccccc1O)C(C)C)C(=O)N[C@@H](CO)C(=O)O,0.216 nM
2,CC(C)C[C@H](NC(=O)[C@@H](NC(=O)c1ccccc1OCc1ccccc1)C(C)C)C(=O)N[C@@H](CO)C(=O)O,0.216 nM

# Target: CDK2/Cyclin A2 (Homo sapiens, UniProt P20248+P24941)
# Test: Inhibition of CDK2/cyclin A2 (unknown origin) using histone as substrate in presence of ATP by luminescent ADP detection assay
row,SMILES,IC50
1,CCCCCNC(=N)N/N=C/c1c[nH]c2ccc(O)cc12,< 20 nM
2,CC(C)[C@H](NC(=O)[C@H](Cc1ccccc1)NC(=O)[C@@H](Cc1ccc(O)cc1)NC(=O)CC12CC3CC(CC(C3)C1)C2)C(=O)N[C@@H](CC(N)=O)C(=O)N[C@@H](CCCN=C(N)N)C(=O)N1CCC[C@@H]1C(=O)N[C@@H](CCCN=C(N)N)C(=O)N[C@@H](CCCN=C(N)N)C(N)=O,< 20 nM
3,CCOc1ccc(C[C@@H](NC(=O)CC23CC4CC(CC(C4)C2)C3)C(=O)N[C@@H](Cc2ccccc2)C(=O)N[C@H](C(=O)N[C@@H](CC(N)=O)C(=O)N[C@@H](CCCCN)C(=O)N2CCC[C@@H]2C(=O)N[C@@H](CCCN=C(N)N)C(=O)N[C@@H](CCCN=C(N)N)C(N)=O)C(C)C)cc1,< 20 nM
4,CCCCC/N=C(/N)N/N=C/c1c[nH]c2ccc(OC(C)C)cc12,< 20 nM
5,CCCCC/N=C(/N)N/N=C/c1c[nH]c2ccc(OCC=C(C)C)cc12,< 20 nM
